The record followed here is patent US12378220B2, “WNT signaling pathway inhibitors for treatments of disease” (University of Maryland, Baltimore, priority 2016, dated 2025).

Like-named read-outs stand apart in the source and are kept apart here.

As a reminder, the bioavailability is dose-corrected exposure relative to a reference, in per cent. Low readings indicate poor availability, high ones good availability.

In series [1] the test system is C57BL/6 mice on Western high-fat diet. As to the kind of experiment: YW1128 on high-fat diet-induced steatosis, liver protein analysis. Format: in vivo. The note with it: I.P. 40 mg/kg/2 days, 11 weeks. The text has this: FIGS. 36A to 36D illustrate the effect of YW1128 on a high-fat diet (HFD)-induced steatosis. FIG. 36A illustrates representative liver histology by H&E staining. FIG. 36B illustrates an intraperitoneal glucose tolerance test (IPGTT) performed at the end of a study. FIG. 36C illustrates body weight monitoring performed during the treatment.
C57BL/6 mice (n=7/group) were put on a Western high-fat diet (HFD) or normal chow diet (NCD). Seven weeks later, the mice received either vehicle or YW1128 by I.P., 40 mg/kg/2 days, for 11 weeks. Representative liver histology was measured by H&E staining (FIG. 36A). An intraperitoneal glucose tolerance test (IPGTT) was conducted at the end of the study (FIG. 36B). Body weight for the mice was monitored during the treatment (FIG. 36C).

In series [2] the test system is C57BL/6 mice on high-fat diet. As to the kind of experiment: YW1128 in high-fat diet mice (liver histology, IPGTT, body weight). It counts as in vivo. How it is done: Mice were treated with YW1128 and representative liver histology was observed through H&E staining. C57BL/6 mice were placed on a high-fat diet. Seven weeks later (week 0), the mice received either vehicle or YW1128 by IP injection for 11 weeks. Regarding treatment with YW1128, the mice were initially treated at a dose of 10 mg/kg/2 days, which was increased to 40 mg/kg/2 days from week 8. The mice were then euthanized at the end of 11 weeks. Liver histology for vehicle (FIGS. 33A and 33B) and YW1128 (FIGS. 33C and 33D) was examined by H&E staining.
An intraperitoneal glucose tolerance test (IPGTT) was conducted on high-fat diet (HFD) groups at the end of the study. C57BL/6 mice (n=3-4 per group) were put on a high fat diet. Seven weeks later (week 0), the mice received either vehicle or YW1128 by IP injection for 11 weeks. Regarding the treatment with YW1128, the mice were initially treated at a dose of 10 mg/kg/2 days, which was increased to 40 mg/kg/2 days from week 8. FIG. 34A describes the glucose levels at up to 120 minutes post-injection at week 0. FIG. 34B describes the glucose levels at up to 120 minutes post-injection at week 11, where *P<0.05 and **P<0.01, compared to the […].
The effect of YW1128 on body weight was also observed in mice having normal diets (NC) and those having high-fat (HF) diets. C57BL/6 mice (n=3-4 per group) were put on either an HF diet or an NC diet. Seven weeks later, the mice received either YW1128 or vehicle by IP injection. Regarding the treatment with YW1128, the mice were treated at a dose of 40 mg/kg/2 days for seven weeks. The results of such study are shown in FIG. 35, where *P<0.05 for the comparison between HF-vehicle and the other three groups.

The next series has as its system Wnt/β-catenin pathway. As to the kind of experiment: dual-luciferase TCF/LEF reporter assay, LiCl-activated, HEK293 cells. Format: cell-based. The note with it: Homo sapiens; for activity at 1 µM: HEK293, 24 h, At 1 μM concentration, remaining Wnt signaling activity, read-out: RLU % (Relative Light Units in reporter gene assays); for IC50: HEK293. On the technique in general: Reporter assays use an easily measured gene product as a stand-in for the process of interest.

The test system of series [3] is WiDr, SW620, HT29, HEK_LTV, and T84 cell lines. As to the kind of experiment: cell proliferation and growth inhibition assay (CCK-8), cell line panel. Format: cell-based, human. Particulars: 72 h, FIG. 12. As to the method:
Cell Proliferation and Growth Inhibition Assay. HT-29, HCT-116, WiDr, SW620, SW480, T84, A549, MCF-7, HepG2, Hela cells were cultured in respective growth medium. Cells of log phase were used. 3000-5000 cells/well were seeded in 96-well plates with a 100 μL volume. After 24 h, Compounds were dissolved to […] with DMSO, and a 3-fold serial dilution of the compounds from 5×10^−5 M to […] was performed. 2 μL of compound solution was added to 998 μL of growth medium, the mixture was vortexed sufficiently. 100 μL of the mixture was correspondingly added to the 96-well plate. 2 μL DMSO instead of compound solution was used as the 0% inhibitor control. After coincubation for 72 h, the old medium was removed and 100 μL of 10% CCK-8 in culture medium was added. 2 h later the plates were read in the microplate reader (Bio-Rad) at 450 nm. The data was calculated using Graph Pad Prism version 5.0. The IC50 were fitted using a nonlinear regression model with a sigmoidal dose response.

Series [4] deals with HepG2 cells. As to the kind of experiment: glucose production, G6P expression and AMPK phosphorylation. Format: cell-based, human. Particulars: for expression of glucose 6-phosphatase (G6P) / glucose production: HepG2, 0.1 μM pyrvinium, 10 μM YW1149; for phosphorylation of AMPK: HepG2 cells.
Series [5] can be described thus: metabolic stability, substrate depletion in liver S9 fraction. Particulars: 37 degrees, after one hour. It counts as in vitro ADME, mouse. How it is done:
(§1) FIGS. 5A and 5B illustrate the metabolic stability of YW1149. S9 fraction from mouse liver tissues (FIG. 5A) and mouse plasma samples (FIG. 5B) were mixed with YW1149 and incubated at 37 degrees, respectively. *P<0.05 as compared to time 0.
(§2) The metabolic stability of these compounds was then estimated using YW1149 as a prototypical compound, with in vitro substrate depletion in mouse liver tissue S9 fraction as previously described (Jones and Houston, 2004).

The nature of a further series: in vivo. The text has this: Representative data from each group is shown.
Blood samples were collected at multiple time points. […] Ultra-performance liquid chromatography system with a triple quadruple detector (UPLC/TQD) was used for compound quantitation.

The nature of another series: plasma stability. It counts as in vitro ADME. Particulars: mouse plasma, 37 degrees. As to the method: as §1, §2
Series [6] has as its system HepG2 cells. As to the kind of experiment: expression of Wnt pathway proteins. Format: cell-based, human. Particulars: FIG. 3. As to the method:
HepG2 cells were treated by YW1149 (vehicle, 0.1, 1 μM).

Another series deals with primary hepatocytes. As to the kind of experiment: glucose production in primary hepatocytes. It counts as cell-based. From the text: In light of this evidence, a class of triazole-based inhibitors were synthesized and tested, as described herein.
The subject of the next series is HEK293 cells. As to the kind of experiment: cytotoxicity, Cell Counting Kit-8 colorimetric assay. Particulars: Homo sapiens, HEK293, read-out: anti-proliferation IC50. A general note: Tetrazolium assays rely on reduction of a dye to a coloured formazan, in cell work by metabolically active cells.
In series [7] the test system is C57BL/6 mice on high-fat diet. The note with it: intraperitoneal. The text has this:
C57BL/6 mice (n=6/group) were put either on high-fat (HF) or normal chow (NC) diet.

[8] abbreviates: high-fat diet mice, IP injection.
The mark [9] stands for this setting: Table 3, values in nM, read-out: IC50.

On to `Cc1ccccc1-n1nnc(C(=O)Nc2ccc3ccccc3n2)c1C` [YW1128, 5-Methyl-N-(quinolin-2-yl)-1-(o-tolyl)-1H-1,2,3-triazole-4-carboxamide], for which, in series [1], the CK1a in liver entry is listed as “did not show any significant change”. In addition, the “phosphorylation of AMPKα1 at threonine 172 (p-AMPKα) in liver” value in series [1] (vs vehicle-treated livers, 40 mg/kg) is recorded as “increased phosphorylation”. The “liver histology (H&E), fatty liver disease” value in [2] (high-fat diet mice, IP 11 weeks) was “did not exhibit any histology of fatty liver disease”. Besides, in series [2] (setting [8]), the body weight gain entry is recorded as “decrease body weight gain” and the “glucose tolerance (IPGTT)” value is given as “significantly improve glucose tolerance”. The “toxicity of subchronic treatment” value in series [2] (mice, IP, up to 40 mg/kg/2 days) is “did not cause any obvious toxicity”. Moreover, the activity at 1 µM with Wnt/β-catenin pathway was found to be 3.7%. Also, the IC50 in the series with Wnt/β-catenin pathway (setting [9]) came out at 7.7 nM. Also, in [3], the growth inhibitory activity entry was “micromolar growth inhibitory activity”.

Regarding `COc1ccccc1-n1nnc(C(=O)Nc2ccc3ccccc3n2)c1C` [YW1149, 1-(2-Methoxyphenyl)-5-methyl-N-(quinolin-2-yl)-1H-1,2,3-triazole-4-carboxamide], in the series on HepG2 cells [4], the “expression of glucose 6-phosphatase (G6P)” value is on record as “significantly suppress”. For the same compound, the figures for the glucose production result in the series on HepG2 cells [4] and in the series on primary hepatocytes were “significantly suppress” and “reduces glucose production”, respectively. Moreover, the “phosphorylation of AMPK” value in the series with HepG2 cells [4] is recorded as “increase phosphorylation”. In series [5], the “metabolism in liver S9 fraction” value was “Only minor metabolism was observed after one hour”. In the series “in vivo” (C57BL/6, mouse), the bioavailability was 75%. The intravenous half-life entry in “in vivo” (mouse, iv, 10 mg/kg) was “one”. In addition, the activity at 1 µM in the series with Wnt/β-catenin pathway came out at 5%. In addition, the IC50 was 74 nM with Wnt/β-catenin pathway (FIG. 1, cellular luciferase gene reporter assay, read-out: IC50, Wnt/β-catenin pathway inhibition); 88 nM with Wnt/β-catenin pathway (setting [9]); greater than 100000 nM in the series with HEK293 cells. Moreover, the stability in plasma entry in “plasma stability” is listed as “stable in plasma for up to eight hours”. Further, in the series on HepG2 cells [6], the Axin protein expression result is recorded as “increased”. Also, the “β-catenin and target gene c-Myc protein” value in the series with HepG2 cells [6] is reported as “attenuation”.

Regarding `Cc1cc(/C=C/c2ccc3cc(N(C)C)ccc3[n+]2C)c(C)n1-c1ccccc1` [Pyrvinium, pyrvinium, reference compound], in the series with HepG2 cells [4], the “expression of glucose 6-phosphatase (G6P)” value is reported as “significantly suppress”, the glucose production result is recorded as “significantly suppress” and the “phosphorylation of AMPK” value was “increase phosphorylation”. Further, the weight gain result in [7] is on record as “decrease weight gain”. In the series on HepG2 cells [6], the Axin protein expression result is reported as “increased”; the “β-catenin and target gene c-Myc protein” value is “attenuation”.
